Assay [1] addresses Proto-oncogene tyrosine-protein kinase Src (Homo sapiens) (UniProt P12931). Nature of the assay: Residual activity of SRC at 1 uM by microplate scintillation counting.
The target of assay [2] is T1, TGF-beta receptor type-1 (Homo sapiens) (UniProt P36897).
T1 sequence (whole entry): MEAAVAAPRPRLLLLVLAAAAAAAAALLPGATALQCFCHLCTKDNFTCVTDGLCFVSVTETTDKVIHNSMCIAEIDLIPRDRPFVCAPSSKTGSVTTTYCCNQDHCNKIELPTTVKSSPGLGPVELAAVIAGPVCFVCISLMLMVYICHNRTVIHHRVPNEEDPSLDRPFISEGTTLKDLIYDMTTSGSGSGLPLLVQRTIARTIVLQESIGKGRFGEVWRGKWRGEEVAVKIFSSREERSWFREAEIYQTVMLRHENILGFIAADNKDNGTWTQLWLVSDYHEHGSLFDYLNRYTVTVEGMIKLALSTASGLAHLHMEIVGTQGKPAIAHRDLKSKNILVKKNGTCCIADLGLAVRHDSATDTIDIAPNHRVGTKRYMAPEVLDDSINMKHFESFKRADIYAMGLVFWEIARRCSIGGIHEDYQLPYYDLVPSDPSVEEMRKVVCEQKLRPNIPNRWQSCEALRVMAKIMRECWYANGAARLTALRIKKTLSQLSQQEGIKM
Nature of the assay: Residual activity of TGFB-R1 at 0.1 uM by microplate scintillation counting.

Assay [3] has as its system Serine/threonine-protein kinase B-raf (Homo sapiens), P15056 [V600E]. Briefly: Residual activity of B-RAF V600E mutant at 0.1 uM by microplate scintillation counting.
Assay [4] has as its target CDK6/cyclin D1 (Homo sapiens) (UniProt P24385+Q00534). Briefly: Residual activity of CDK6/Cyclin D1 at 0.1 uM by microplate scintillation counting. Format: protein-complex assay.
The target of assay [5] is T2, Serine/threonine-protein kinase NLK (Homo sapiens) (UniProt Q9UBE8).
T2 sequence (whole entry): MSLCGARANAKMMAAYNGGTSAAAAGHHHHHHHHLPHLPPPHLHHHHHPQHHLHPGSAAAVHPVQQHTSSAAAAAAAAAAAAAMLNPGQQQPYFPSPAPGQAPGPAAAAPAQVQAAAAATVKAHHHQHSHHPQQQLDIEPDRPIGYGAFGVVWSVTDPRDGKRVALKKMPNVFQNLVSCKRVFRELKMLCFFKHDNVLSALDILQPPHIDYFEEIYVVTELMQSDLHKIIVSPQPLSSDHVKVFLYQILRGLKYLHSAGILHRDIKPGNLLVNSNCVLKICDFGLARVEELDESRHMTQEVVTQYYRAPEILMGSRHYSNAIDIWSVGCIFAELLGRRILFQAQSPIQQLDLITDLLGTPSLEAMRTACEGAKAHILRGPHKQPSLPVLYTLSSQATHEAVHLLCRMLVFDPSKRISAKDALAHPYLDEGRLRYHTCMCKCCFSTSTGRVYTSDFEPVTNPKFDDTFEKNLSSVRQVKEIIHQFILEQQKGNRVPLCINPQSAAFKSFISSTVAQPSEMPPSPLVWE
Briefly: Residual activity of NLK at 0.1 uM by microplate scintillation counting.

For assay [6], the target named is Serine/threonine-protein kinase MARK1 (Homo sapiens) (UniProt Q9P0L2). Nature of the assay: Residual activity of MARK1 at 10 uM by microplate scintillation counting.
Sequence of Serine/threonine-protein kinase MARK1 (Homo sapiens) (Q9P0L2 whole entry, looked up): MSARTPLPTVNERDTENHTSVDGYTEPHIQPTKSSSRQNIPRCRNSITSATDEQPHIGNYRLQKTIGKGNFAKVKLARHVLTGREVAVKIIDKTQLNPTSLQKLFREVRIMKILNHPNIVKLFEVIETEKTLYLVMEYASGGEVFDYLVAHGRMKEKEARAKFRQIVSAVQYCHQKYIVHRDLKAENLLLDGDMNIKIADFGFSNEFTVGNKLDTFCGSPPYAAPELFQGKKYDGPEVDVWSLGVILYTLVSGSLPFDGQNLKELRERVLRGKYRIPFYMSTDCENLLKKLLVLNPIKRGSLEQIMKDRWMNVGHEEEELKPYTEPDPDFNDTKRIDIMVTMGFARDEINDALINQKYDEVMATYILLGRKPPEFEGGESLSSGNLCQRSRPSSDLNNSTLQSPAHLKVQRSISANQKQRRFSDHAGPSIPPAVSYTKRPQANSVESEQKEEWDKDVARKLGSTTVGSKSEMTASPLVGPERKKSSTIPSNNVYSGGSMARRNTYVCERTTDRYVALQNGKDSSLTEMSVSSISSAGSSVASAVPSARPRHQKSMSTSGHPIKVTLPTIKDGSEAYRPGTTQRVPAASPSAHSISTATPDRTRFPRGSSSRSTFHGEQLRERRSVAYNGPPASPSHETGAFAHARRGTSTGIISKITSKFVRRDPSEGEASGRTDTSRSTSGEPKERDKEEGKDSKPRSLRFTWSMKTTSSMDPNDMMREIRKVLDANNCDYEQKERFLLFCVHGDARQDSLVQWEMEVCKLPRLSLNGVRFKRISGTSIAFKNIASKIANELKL
In assay [7] the target is SRSF protein kinase 1 (Homo sapiens) (UniProt Q96SB4). Nature of the assay: Residual activity of SRPK1 at 10 uM by microplate scintillation counting.
Sequence of SRSF protein kinase 1 (Homo sapiens) (Q96SB4 whole entry): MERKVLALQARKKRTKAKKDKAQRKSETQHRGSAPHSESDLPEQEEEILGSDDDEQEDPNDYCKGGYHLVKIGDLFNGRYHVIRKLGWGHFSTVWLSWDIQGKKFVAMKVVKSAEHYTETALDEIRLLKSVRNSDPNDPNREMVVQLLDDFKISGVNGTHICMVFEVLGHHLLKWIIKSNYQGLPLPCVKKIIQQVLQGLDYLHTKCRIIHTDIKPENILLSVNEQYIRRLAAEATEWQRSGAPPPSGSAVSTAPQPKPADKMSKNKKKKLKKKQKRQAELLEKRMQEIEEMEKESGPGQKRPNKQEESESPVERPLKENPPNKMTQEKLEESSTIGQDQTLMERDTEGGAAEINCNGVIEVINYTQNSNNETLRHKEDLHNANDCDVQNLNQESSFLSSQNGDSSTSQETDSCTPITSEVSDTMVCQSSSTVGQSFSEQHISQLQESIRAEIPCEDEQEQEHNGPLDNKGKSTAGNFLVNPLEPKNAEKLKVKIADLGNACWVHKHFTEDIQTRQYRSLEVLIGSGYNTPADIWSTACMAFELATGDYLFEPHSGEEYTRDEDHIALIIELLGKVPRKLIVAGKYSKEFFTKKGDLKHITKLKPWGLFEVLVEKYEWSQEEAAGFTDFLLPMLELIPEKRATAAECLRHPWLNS
Assay [8] addresses CDK4/Cyclin D3 (Homo sapiens) (UniProt P11802+P30281). Briefly: Residual activity of CDK4/Cyclin D3 at 10 uM by microplate scintillation counting. It counts as protein-complex assay.
The target of assay [9] is G protein-coupled receptor kinase 5 (Homo sapiens) (UniProt P34947). Nature of the assay: Residual activity of GRK5 at 10 uM by microplate scintillation counting.
Assay [10] deals with T3, Ephrin type-A receptor 3 (Homo sapiens) (UniProt P29320).
T3 sequence (whole entry): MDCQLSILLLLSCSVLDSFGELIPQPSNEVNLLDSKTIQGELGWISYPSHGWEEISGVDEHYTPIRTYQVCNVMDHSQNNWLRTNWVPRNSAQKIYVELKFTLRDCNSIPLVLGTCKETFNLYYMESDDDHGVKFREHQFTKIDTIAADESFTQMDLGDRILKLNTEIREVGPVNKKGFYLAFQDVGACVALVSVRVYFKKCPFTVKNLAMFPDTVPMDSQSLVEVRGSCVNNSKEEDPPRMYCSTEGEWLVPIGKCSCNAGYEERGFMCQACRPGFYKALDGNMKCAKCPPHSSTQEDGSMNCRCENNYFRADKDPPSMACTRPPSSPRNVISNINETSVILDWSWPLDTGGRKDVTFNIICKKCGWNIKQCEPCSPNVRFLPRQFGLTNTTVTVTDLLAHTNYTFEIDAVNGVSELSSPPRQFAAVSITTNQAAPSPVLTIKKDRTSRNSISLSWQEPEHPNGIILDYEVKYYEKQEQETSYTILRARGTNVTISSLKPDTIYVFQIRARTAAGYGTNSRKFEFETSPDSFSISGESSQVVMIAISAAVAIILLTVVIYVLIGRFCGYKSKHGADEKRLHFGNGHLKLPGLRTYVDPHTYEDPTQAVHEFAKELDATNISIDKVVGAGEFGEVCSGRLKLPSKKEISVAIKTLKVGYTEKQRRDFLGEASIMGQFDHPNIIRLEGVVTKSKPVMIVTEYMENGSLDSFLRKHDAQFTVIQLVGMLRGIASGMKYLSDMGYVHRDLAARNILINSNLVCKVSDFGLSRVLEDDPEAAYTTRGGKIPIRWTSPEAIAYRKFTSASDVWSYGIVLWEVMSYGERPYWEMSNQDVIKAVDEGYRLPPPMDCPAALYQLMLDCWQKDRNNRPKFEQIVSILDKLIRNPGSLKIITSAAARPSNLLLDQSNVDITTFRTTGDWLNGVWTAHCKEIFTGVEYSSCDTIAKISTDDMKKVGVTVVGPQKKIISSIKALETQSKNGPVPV
Nature of the assay: Residual activity of EPHA3 at 1 uM by microplate scintillation counting.

Assay [11] has as its target Death-associated protein kinase 2 (Homo sapiens) (UniProt Q9UIK4). Briefly: Residual activity of DAPK2 at 0.1 uM by microplate scintillation counting.
The target in assay [12] is Homeodomain-interacting protein kinase 1 (Homo sapiens) (UniProt Q86Z02). Briefly: Residual activity of HIPK1 at 1 uM by microplate scintillation counting.
Sequence of Homeodomain-interacting protein kinase 1 (Homo sapiens) (Q86Z02 whole entry, looked up): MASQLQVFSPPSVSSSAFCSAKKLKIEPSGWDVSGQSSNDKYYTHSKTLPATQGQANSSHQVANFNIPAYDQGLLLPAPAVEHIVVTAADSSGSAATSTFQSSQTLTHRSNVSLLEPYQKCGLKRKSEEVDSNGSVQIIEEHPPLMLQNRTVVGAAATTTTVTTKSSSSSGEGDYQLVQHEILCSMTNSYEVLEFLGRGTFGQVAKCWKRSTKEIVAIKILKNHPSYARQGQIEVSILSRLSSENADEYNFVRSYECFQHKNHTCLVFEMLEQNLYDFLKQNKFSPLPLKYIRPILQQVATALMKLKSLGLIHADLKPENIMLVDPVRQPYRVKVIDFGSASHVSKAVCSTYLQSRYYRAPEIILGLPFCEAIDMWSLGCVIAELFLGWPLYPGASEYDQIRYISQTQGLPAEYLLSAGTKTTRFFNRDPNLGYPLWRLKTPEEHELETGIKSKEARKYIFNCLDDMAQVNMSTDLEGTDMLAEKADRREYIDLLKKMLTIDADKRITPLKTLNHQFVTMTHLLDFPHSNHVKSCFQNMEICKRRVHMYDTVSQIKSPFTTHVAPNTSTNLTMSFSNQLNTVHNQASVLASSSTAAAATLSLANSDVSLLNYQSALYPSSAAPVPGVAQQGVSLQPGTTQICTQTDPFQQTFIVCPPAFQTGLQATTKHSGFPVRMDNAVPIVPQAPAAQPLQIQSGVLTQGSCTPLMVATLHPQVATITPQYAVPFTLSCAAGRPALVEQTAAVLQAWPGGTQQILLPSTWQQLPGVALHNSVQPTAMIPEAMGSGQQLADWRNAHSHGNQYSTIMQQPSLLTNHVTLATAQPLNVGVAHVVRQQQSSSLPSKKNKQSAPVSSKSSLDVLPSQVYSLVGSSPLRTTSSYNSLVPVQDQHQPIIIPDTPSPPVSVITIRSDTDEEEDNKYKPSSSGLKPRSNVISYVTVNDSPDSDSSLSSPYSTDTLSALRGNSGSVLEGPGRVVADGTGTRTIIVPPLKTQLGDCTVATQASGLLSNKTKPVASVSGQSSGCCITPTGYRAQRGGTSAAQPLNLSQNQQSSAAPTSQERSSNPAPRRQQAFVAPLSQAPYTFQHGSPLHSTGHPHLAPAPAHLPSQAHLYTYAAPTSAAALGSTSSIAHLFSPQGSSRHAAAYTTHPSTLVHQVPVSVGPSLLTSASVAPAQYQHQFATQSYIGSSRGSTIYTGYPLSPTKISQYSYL
The target of assay [13] is Tyrosine-protein kinase receptor UFO (Homo sapiens) (UniProt P30530). Briefly: Residual activity of AXL at 1 uM by microplate scintillation counting.
Sequence of Tyrosine-protein kinase receptor UFO (Homo sapiens) (P30530 whole entry): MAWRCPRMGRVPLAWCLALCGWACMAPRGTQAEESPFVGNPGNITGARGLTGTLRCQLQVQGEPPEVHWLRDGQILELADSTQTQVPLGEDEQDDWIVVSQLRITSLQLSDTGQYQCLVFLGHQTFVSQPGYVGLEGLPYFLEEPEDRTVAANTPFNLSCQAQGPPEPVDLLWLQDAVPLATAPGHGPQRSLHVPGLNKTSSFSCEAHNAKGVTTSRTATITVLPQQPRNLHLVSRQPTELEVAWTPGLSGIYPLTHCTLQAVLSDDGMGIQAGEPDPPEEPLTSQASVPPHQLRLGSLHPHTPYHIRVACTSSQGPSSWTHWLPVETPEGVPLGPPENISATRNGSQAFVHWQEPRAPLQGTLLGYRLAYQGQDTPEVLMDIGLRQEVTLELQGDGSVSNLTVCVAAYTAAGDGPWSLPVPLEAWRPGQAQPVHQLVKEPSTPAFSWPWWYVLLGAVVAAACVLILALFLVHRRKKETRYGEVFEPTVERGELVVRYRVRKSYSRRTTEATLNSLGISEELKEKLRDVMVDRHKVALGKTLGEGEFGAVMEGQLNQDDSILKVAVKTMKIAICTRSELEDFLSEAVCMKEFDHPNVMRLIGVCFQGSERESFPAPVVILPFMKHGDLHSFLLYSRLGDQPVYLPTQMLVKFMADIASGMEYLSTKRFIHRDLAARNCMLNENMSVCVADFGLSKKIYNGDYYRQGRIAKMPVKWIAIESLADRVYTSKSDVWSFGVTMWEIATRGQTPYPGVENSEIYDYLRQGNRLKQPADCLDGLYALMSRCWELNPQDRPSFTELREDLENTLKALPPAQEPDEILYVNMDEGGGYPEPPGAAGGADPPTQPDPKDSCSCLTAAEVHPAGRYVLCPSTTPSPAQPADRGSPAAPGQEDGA
Assay [14] has as its target Fibroblast growth factor receptor 2 (Homo sapiens) (UniProt P21802). Briefly: Residual activity of FGFR2 at 0.1 uM by microplate scintillation counting.
Assay [15] deals with Serine/threonine-protein kinase 26 (Homo sapiens) (UniProt Q9P289). Nature of the assay: Residual activity of MST4 at 0.1 uM by microplate scintillation counting.
The target in assay [16] is Casein kinase I isoform gamma-3 (Homo sapiens) (UniProt Q9Y6M4). Nature of the assay: Residual activity of CK1gamma3 at 1 uM by microplate scintillation counting.
Sequence of Casein kinase I isoform gamma-3 (Homo sapiens) (Q9Y6M4 whole entry, looked up, canonical isoform): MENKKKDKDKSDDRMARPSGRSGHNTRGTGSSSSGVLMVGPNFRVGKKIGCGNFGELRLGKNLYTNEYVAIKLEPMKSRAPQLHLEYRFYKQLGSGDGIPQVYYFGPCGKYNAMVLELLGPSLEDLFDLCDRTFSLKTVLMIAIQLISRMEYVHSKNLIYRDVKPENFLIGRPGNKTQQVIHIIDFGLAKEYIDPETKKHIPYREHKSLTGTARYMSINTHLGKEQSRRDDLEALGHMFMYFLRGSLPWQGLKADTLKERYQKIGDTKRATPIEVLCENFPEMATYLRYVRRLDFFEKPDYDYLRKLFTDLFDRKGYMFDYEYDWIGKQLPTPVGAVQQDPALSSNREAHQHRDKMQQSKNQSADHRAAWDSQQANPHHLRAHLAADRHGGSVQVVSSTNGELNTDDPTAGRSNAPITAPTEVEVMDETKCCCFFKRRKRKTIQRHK

Sequence of Proto-oncogene tyrosine-protein kinase Src (Homo sapiens) (P12931 2-536 limits assumed): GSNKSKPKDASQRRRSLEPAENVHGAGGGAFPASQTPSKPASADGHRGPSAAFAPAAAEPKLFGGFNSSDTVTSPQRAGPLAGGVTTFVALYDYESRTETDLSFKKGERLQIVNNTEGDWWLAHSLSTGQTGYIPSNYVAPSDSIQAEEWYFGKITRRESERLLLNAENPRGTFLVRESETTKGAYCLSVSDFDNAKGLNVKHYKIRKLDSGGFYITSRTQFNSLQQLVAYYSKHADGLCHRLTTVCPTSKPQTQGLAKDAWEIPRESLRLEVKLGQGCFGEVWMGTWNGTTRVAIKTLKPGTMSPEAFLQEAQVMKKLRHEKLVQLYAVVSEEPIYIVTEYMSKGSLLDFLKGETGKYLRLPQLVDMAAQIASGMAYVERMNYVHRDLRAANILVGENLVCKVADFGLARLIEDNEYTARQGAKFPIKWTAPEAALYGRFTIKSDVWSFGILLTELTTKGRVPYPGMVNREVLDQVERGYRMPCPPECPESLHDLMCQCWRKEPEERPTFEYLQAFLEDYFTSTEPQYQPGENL
Sequence of Death-associated protein kinase 2 (Homo sapiens) (Q9UIK4 whole entry, looked up): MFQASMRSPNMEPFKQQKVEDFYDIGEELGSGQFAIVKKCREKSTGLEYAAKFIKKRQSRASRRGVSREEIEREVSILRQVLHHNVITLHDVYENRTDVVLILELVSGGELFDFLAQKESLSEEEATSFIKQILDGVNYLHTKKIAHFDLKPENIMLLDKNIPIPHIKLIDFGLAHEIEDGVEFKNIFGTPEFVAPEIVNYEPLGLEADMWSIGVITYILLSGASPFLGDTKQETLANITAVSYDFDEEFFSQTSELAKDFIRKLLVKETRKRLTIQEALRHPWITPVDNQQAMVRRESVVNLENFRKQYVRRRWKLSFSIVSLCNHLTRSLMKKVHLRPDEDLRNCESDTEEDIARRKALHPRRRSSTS

The residual activity is the signal under treatment as a percentage of the control signal. Turning to `COc1cc2c(Oc3ccc(-c4nc5ccccc5s4)cc3F)ncnc2cc1OCCCN1CCN(C)CC1`, the residual activity amounted to 89% in assay [1]; 96% in assay [2]; 96% in assay [3]; 107% in assay [4]; 91% in assay [5]; 112% in assay [6]. Besides, the residual activity worked out at 64% in [7]; 93% in [8]; 84% in [9]; 96% in assay [10]; 85% in assay [11]; 81% in assay [12]. Also, the residual activity in assay [13] is 89%; in assay [14], 105%; in [15], 107%; in assay [16], 92%.

Turning to `COc1cc2c(Oc3ccc(-c4nc5ccccc5s4)cc3)ncnc2cc1OCCCN1CCN(C)CC1`, the residual activity came to 87% in [1]; 102% in assay [2]; 91% in assay [3]; 99% in assay [4]; 94% in [5]; 124% in assay [6]. Also, the residual activity stood at 98% in [7]; 105% in assay [8]; 76% in [9]; 96% in assay [10]; 81% in assay [11]; 82% in [12]. Moreover, the residual activity in assay [13] worked out at 88%; in assay [14], 101%; in assay [15] it was 106%; in [16], 83%.

Take `COc1cc2c(Oc3ccc(-c4nc5ccccc5s4)cc3)ncnc2cc1OCCCN1CCCC1`: the residual activity in assay [1] turned out to be 95%; in assay [2], 90%; in [3], 92%; in [4], 91%; in assay [5], 90%; in assay [6] it was 112%. Moreover, the residual activity came to 107% in [7]; 98% in [8]; 81% in assay [9]; 90% in assay [10]; 96% in [11]; 77% in [12]. Further, the residual activity was 71% in assay [13], 103% in [14], 93% in assay [15] and 88% in assay [16].
